Test results: ChEMBL document CHEMBL5352445, “Design and synthesis of functionalized 4-aryl-Catechol derivatives as new antiinflammtory agents with in vivo efficacy” (Eur J Med Chem, 2022)
Active and inactive are the calls of the source. The rule behind the calls is not given here.

What was measured:
[1] = Antioxidant activity assessed as quercetin equivalent of Ferric ion TPTZ reducing activity incubated for 6 mins by FRAP assay; assay type: functional
[2] = biological target: T1, Polyunsaturated fatty acid 5-lipoxygenase (Homo sapiens, UniProt P09917); assay: Inhibition of recombinant human 5-lipoxygenase expressed in Escherichia coli BL21 using arachidonic acid as substrate preincubated for 5 to 10 mins with compound followed by substrate addition and measured after 10 mins by HPLC analysis
T1 sequence (P09917 whole entry): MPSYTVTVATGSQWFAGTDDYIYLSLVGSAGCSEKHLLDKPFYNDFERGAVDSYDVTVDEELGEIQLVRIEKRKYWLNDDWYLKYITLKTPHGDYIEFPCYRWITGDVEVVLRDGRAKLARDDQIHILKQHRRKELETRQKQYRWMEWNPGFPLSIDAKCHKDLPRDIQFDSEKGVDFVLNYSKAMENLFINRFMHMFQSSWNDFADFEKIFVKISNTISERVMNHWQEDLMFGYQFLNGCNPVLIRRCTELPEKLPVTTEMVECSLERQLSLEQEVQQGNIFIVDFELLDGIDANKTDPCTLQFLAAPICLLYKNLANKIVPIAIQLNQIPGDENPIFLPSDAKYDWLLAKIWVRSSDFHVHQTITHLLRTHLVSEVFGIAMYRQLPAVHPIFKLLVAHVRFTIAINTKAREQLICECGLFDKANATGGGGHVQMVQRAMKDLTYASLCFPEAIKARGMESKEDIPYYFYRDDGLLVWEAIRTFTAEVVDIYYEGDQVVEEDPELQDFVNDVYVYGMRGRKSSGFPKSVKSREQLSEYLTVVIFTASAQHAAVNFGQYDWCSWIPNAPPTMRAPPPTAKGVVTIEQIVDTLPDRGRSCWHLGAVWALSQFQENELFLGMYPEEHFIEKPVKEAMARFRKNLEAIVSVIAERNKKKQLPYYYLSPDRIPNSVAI

[3] = biological target: T2, Polyunsaturated fatty acid lipoxygenase ALOX15 (Homo sapiens) (UniProt P16050); assay: Inhibition of 15-lipoxygenase in human PMNL cells using arachidonic acid as substrate assessed as residual activity at 1 uM preincubated with compound for 15 mins followed by A23187 and substrate addition and measured after 10 mins by HPLC analysis relative to control; assay type: cell-based; conditions: time 25.0 min
T2 sequence (whole entry): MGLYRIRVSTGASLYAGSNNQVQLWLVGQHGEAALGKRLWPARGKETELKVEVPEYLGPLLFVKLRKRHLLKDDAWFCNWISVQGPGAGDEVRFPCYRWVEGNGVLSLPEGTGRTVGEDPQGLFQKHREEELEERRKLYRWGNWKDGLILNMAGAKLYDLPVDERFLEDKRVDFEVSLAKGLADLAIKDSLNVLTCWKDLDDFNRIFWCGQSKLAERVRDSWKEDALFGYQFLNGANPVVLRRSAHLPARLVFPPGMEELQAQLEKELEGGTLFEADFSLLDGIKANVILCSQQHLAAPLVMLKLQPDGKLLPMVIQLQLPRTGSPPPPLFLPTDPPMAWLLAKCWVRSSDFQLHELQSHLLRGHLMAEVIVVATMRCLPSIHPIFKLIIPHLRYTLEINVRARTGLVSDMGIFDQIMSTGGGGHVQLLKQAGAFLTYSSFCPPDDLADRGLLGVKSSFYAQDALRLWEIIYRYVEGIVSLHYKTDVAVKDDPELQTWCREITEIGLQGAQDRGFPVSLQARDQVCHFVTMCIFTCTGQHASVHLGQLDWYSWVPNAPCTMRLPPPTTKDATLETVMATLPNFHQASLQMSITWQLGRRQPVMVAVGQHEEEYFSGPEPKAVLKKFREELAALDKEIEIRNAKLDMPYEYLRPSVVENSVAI

[4] = Antioxidant activity assessed as DPPH radical scavenging activity by ultraviolet spectrophotometric analysis; assay type: functional
[5] = biological target: T3, Polyunsaturated fatty acid lipoxygenase ALOX12 (Homo sapiens) (UniProt P18054); assay: Inhibition of 12-lipoxygenase in human PMNL cells using arachidonic acid as substrate assessed as residual activity at 10 uM preincubated with compound for 15 mins followed by A23187 and substrate addition and measured after 10 mins by HPLC analysis relative to control; assay type: cell-based; conditions: time 25.0 min
T3 sequence (whole entry): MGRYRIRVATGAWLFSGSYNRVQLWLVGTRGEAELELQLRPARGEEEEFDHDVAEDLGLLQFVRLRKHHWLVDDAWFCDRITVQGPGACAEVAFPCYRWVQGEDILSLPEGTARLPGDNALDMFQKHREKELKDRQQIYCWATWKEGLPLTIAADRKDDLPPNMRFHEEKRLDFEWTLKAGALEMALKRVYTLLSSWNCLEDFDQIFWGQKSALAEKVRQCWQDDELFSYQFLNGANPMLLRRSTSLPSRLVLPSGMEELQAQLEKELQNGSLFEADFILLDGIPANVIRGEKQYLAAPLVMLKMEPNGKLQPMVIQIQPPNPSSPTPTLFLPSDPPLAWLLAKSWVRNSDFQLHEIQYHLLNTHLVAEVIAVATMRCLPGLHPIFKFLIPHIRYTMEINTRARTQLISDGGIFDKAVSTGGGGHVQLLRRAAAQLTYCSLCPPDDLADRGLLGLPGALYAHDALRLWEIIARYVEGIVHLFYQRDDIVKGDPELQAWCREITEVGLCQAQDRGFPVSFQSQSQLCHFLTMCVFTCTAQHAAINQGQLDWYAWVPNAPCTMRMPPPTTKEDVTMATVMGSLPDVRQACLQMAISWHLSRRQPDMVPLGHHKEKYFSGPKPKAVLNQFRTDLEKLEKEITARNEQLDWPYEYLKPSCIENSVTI

[6] = biological target: T1, Polyunsaturated fatty acid 5-lipoxygenase; assay: Inhibition of 5-lipoxygenase in human PMNL cells using arachidonic acid as substrate preincubated with compound for 15 mins followed by A23187 and substrate addition and measured after 10 mins by HPLC analysis; assay type: cell-based
Mus musculus [7] = assay: Anti-inflammatory activity against OVA-sensitized isolated perfused lung mouse model assessed as reduction in Ach-induced bronchoconstriction at 0.1 to 1 mg/kg, ip preadministered with compound for 30 mins followed by OVA challenge and measured 24 hrs after last aerosolized OVA challenge; assay type: functional, organism-based; conditions: dose 0.1-1 mg/kg, time 24.5 hrs
[8] = biological target: T2, Polyunsaturated fatty acid lipoxygenase ALOX15 (Homo sapiens); assay: Inhibition of 15-lipoxygenase in human PMNL cells using arachidonic acid as substrate assessed as residual activity at 10 uM preincubated with compound for 15 mins followed by A23187 and substrate addition and measured after 10 mins by HPLC analysis relative to control; assay type: cell-based; conditions: time 25.0 min
[9] = biological target: T1, Polyunsaturated fatty acid 5-lipoxygenase; assay: Inhibition of 5-LOX in human PMNL cells; assay type: cell-based
[10] = biological target: T3, Polyunsaturated fatty acid lipoxygenase ALOX12 (Homo sapiens); assay: Inhibition of 12-lipoxygenase in human PMNL cells using arachidonic acid as substrate assessed as residual activity at 1 uM preincubated with compound for 15 mins followed by A23187 and substrate addition and measured after 10 mins by HPLC analysis relative to control; assay type: cell-based; conditions: time 25.0 min
Mus musculus [11] = assay: Antiinflammatory activity in carrageenan induced mouse paw edema model assessed as reduction in hind paw swelling at 0.1 to 10 mg/kg, ip preadministered with compound for 30 mins followed by carrageenan administration and measured upto 72 hrs by hydroplethismometer; assay type: functional, organism-based; conditions: dose 0.1-10 mg/kg, time <= 72.5 hrs
Mus musculus [12] = assay: Antiinflammatory activity against zymosan-induced air pouch mouse model assessed as inhibition of cell migration at 0.1 mg/kg, ip preadministered with compound for 30 mins followed by sterile air injection three days once for 6 days and measured 4 hrs after zymosan administration by optical microscopic analysis; assay type: functional, organism-based; conditions: time 148.5 hrs

| EC50 [1] [µM] | IC50 [2] [µM] | Activity [3] [%] | EC50 [4] [µM] | Activity [5] [%] | IC50 [6] [µM] | Activity [8] [%] | IC50 [9] [µM] | Activity [10] [%] | Compound | Activity (Mus musculus [7]) | Activity (Mus musculus [11]) | Activity (Mus musculus [12]) |
| --- | --- | --- | --- | --- | --- | --- | --- | --- | --- | --- | --- | --- |
| 890 | 0.01 | 114 | 51 | 49.4 | 2.34 |  |  |  | Oc1ccc(-c2c3ccccc3cc3ccccc23)cc1O |  |  |  |
|  |  |  |  |  |  |  |  |  | CC(c1cc2ccccc2s1)N(O)C(N)=O (stereo not drawn) | Active |  |  |
| 560 | 0.02 |  | 64 | 74.9 | 0.26 | 91.4 |  |  | Oc1ccc(-c2ccc(Cl)cc2)cc1O |  |  |  |
| 190 | 0.05 |  | 46 | 86.1 | 0.47 | 112 |  |  | Oc1ccc(-c2ccccc2)cc1O |  |  |  |
| 970 | 0.01 |  | 37 | 88.8 | 0.27 | 82.8 |  |  | CCOc1ccc2ccccc2c1-c1ccc(O)c(O)c1 |  |  |  |
|  |  |  |  |  |  |  | 1.5 |  | CCCCCCCCCCCC1=C(O)C(=O)C=C(O)C1=O [EMBELIN] |  |  |  |
|  |  |  |  |  |  |  | 0.03 |  | CCCCCCCCCCCCc1c(O)c(O)cc(OC)c1OC |  |  |  |
| 610 | 0.02 |  | 74 | 86.6 | 0.21 | 84.1 |  |  | Oc1ccc(-c2cccc(Cl)c2)cc1O |  |  |  |
| 1380 | 0.007 |  | 82 | 71.5 | 0.25 | 70.5 |  |  | Oc1ccc(-c2cccc3c2sc2ccccc23)cc1O |  |  |  |
| 70 | 0.04 |  | 71 | 89.6 | 0.24 | 84.8 |  | 74 | Oc1ccc(-c2ccc3c(c2)OCCO3)cc1O |  |  |  |
| 370 | 0.007 |  | 53 | 93.8 | 0.32 | 57.2 |  |  | Oc1ccc(-c2ccc3ccccc3c2)cc1O |  |  |  |
| 460 | 0.03 |  | 49 | 80.6 | 1.11 | 71.1 |  |  | Oc1ccc(-c2cc3ccccc3o2)cc1O |  |  |  |
|  | 0.008 |  |  |  | 0.23 |  |  |  | Oc1ccc(-c2cccc3c2Sc2ccccc2S3)cc1O |  |  |  |
| 3080 | 0.076 |  | 54 | 69.5 | 0.21 | 70.3 |  |  | Oc1ccc(-c2cccc3c2oc2ccccc23)cc1O | Active | Active | Active |
|  |  |  |  |  |  |  | 10 |  | COC1=CC(=O)C(O)=C(C[C@]2(C)CC[C@@]3(C)C(C)=CCC[C@@H]3[C@@H]2C)C1=O |  |  |  |
| 650 | 0.21 |  | 275 | 75 | 1.33 | 80.8 |  |  | Oc1ccc(-c2ccc(O)c(O)c2)cc1 |  |  |  |
|  |  |  |  |  |  |  | 10 |  | O=C1C=C(O)C(=O)C(CC2CCC3CCCCC3C2)=C1O (stereo not drawn) |  |  |  |
|  |  |  |  |  |  |  | 4.4 |  | Oc1cc(O)c(O)c(CC2CCC3CCCCC3C2)c1O (stereo not drawn) |  |  |  |
